According to patent US4454122A, “Adenosine derivatives of anti-inflammatory and analgesic activity, and therapeutic compositions which contain them as their active principle” (Bioresearch S.r.l., priority 1982, dated 1984):

Columns and labels:
[1] = system: platelet aggregation induced by arachidonic acid; test: in vitro platelet aggregation induced by arachidonic acid (AA); type: cell-based
Method: (2) "in vitro" tests on platelet aggregation induced by arachidonic acid (AA);
(§1) Blood was withdrawn without stasis, and an anticoagulant (3.8% sodium citrate) was added to give a blood:citrate ratio of 9:1. Plasma rich in platelets and plasma poor in platelets were obtained by centrifuging at ambient temperature.
(§2) The platelet aggregation was estimated using the Born & Cross method (G. V. R. Born and M. J. Cross, J. Physiol., Lond. 168, 178, 1963) on the plasma fraction rich in platelets.
(§3) The aggregating agents were used in the following concentrations:
(§4) ADP (Sigma) 1 μM; collagen (Horn) 5 μml; arachidonic acid 4×10^-4 M.
The capacity of MTA to increase the inhibiting effect of prostacyclin (PGI2) in aggregation induced by AA was also investigated. In FIG. 3, curve 1 relates to the controls, curve 2 to MTA at a concentration of 5×10^-4 M, curve 3 to PGI2 at a concentration of 5×10^-9 M, and curve 4 to a mixture consisting of 5×10^-4 M MTA and 5×10^-9 M PGI2.

[2] = system: granuloma in the rat by cotton pellets; test: granuloma test in the rat by cotton pellets; type: in vivo; conditions: 9 mg/kg, oral
Excerpt: (§5) In the granuloma test in the rat by cotton pellets (Winter […]. et al (1963) J. Pharm. Exper.

[3] = granuloma test in the rat by cotton pellets; type: in vivo; conditions: in vivo, 9 mg/kg, oral, read-out: TI (granuloma test)
Excerpt: as §5

[4] = system: mouse; test: hot plate test on the mouse according to Roberts (analgesic activity); type: in vivo; conditions: 37 mg/kg, oral
Method: C--The analgesic activity of the products was tested by two tests considered very significant.
In the hot plate test on the mouse according to Roberts (Roberts E. Simonsen D.G. (1966) Biochem. Pharmac. 15, 1875-) the MTA gives a protection of 50% with an oral dose of 37 mg/kg. An approximately equivalent protection of 58% is obtained with 100 mg/kg of amidopyrine administered orally.

[5] = acute toxicity, DL50 in the mouse; conditions: in vivo, po, orally
Excerpt: The compounds of the present invention are practically free from acute toxicity when administered orally. They are practically free from toxicity at therapeutic doses for any method of administration. The following values are obtained for MTA and MTA sulphoxide: […]

[6] = system: stretching by phenylquinone; test: stretching test by phenylquinone (analgesic activity); type: in vivo; conditions: 37 mg/kg, oral
[7] = system: platelet aggregation induced by ADP; test: platelet aggregation induced by ADP in persons treated with the product ("in vivo" tests); parameters: species or system healthy volunteer subjects; conditions: 100 mg every 8 hours for 3 days; ADP 1 μM; FIG. 4
Method: (§6) (3) "in vitro" tests on platelet aggregation induced by ADP and collagen in persons treated with the new products.
(§7) Three apparently healthy volunteer subjects respectively, and who had not taken any drug for at least 15 days, were submitted to aggregation tests before and after consuming the new products at a dose of 100 mg every 8 hours for 3 days, these tests then being evaluated. The blood sample for the determination of the platelet aggregation was taken 2 hours […] consuming the last dose of product under test.
More precisely, the full-line curves relate to the values obtained with blood samples from untreated patients, whereas the dashed-line curves relate to the values obtained for the same patients treated with MTA.

[8] = system: platelet aggregation induced by collagen; test: in vitro platelet aggregation induced by collagen (Born & Cross method); type: cell-based
Method: (§8) (1) "in vitro" tests on platelet aggregation induced by ADP and collagen, in the presence of the new products;
as §1, §2, §3, §4

[9] = system: experimental edema in the rat by carragen; test: experimental edema in the rat by carragen (Winter method), percentage protection; type: in vivo; conditions: im; 23 mg/kg intramuscularly, rat; read-out: Percent protection calculated on edema development
Method: ^ (a) signifies that the product was administered intramuscularly.

[10] = system: platelet aggregation induced by ADP; test: in vitro platelet aggregation induced by ADP (Born & Cross method); type: cell-based
Method: as §8, §1, §2, §3, §4
Adenosine at a concentration of 1×10^-5 M was used as the antiaggregation activity reference substance.
The results obtained with ADP are shown on the graphs of FIG. 1, in which the abscissa indicates the time in minutes and the ordinate the percentage aggregation.
Curve 1 relates to the controls, curve 2 to the samples treated with 1×10^-5 M adenosine, and curve 3 to the samples treated with 5×10^-4 M MTA.

[11] = system: sleep induced by pentobarbital in the mouse; test: Morris test, duration of the sleep induced by pentobarbital in the mouse; type: in vivo; conditions: 20 mg/kg, intramuscular
Method: The Morris test was used (Morris R. W. (1966) Arch. int. Pharmacodyn 161, No. 2, 380)
In this test, the MTA increased by 87% the duration of the sleep induced by pentobarbital in the mouse, at an intramuscular dose of 20 mg/kg.

[12] = system: pleuritis induced in the rat by carragen; test: pleuritis induced in the rat by carragen (Velo method); type: in vivo; conditions: 75 mg/kg, oral, rat
[13] = system: platelet aggregation induced by collagen; test: platelet aggregation induced by collagen in persons treated with the product ("in vivo" tests); parameters: species or system healthy volunteer subjects; conditions: 100 mg every 8 hours for 3 days; collagen 5 μg/ml
Method: as §6, §7

[14] = lethal dose in the rat and therapeutical index; conditions: in vivo
[15] = system: experimental edema in the rat by carragen; test: experimental edema in the rat by carragen (Winter method), percentage protection; type: in vivo; conditions: po, rat
[16] = system: fever induced in the rat by beer yeast; test: fever induced in the rat by beer yeast (antipyretic activity); type: in vivo
Method: This was measured for the new products by means of fever induced in the rat by beer yeast (Winder C. V. et al (1961) J. Pharmacol. Exp. Ther. 133, 117).

[17] = system: gastro-intestinal system; test: secondary effects on the gastro-intestinal system at ED50 doses (gastric lesions); type: in vivo, rat; conditions: rat, in vivo
Method: In the same test, the ED50 of indomethacine is 9 mg/kg.

[18] = summary of in vitro and in vivo tests

Structure (SMILES): CSC[C@H]1O[C@@H](n2cnc3c(N)ncnc32)[C@H](O)[C@@H]1O [MTA, 5'-deoxy-5'-methyl-thioadenosine]
- platelet aggregation inhibiting effect, AA induced (in words) ([1]; 2.5×10^-4, 5×10^-4 and 10^-3 M, AA 4×10^-4 M, FIG. 2): proportional to its concentration
- antiaggregation action alone, AA induced (in words) ([1]; MTA 5×10^-4 M or PGI2 5×10^-9 M, each alone, FIG. 3): ineffective
- protection in the granuloma test [2]: 30%
- selectivity ratio [3]: 222
- protection in the hot plate test [4]: 50%
- LD50 [5]: > 2000 mg/kg
- protection in the stretching test by phenylquinone [6]: 51%
- platelet aggregation induced by ADP "in vivo" (in words) [7]: strongly inhibits platelet aggregation induced by ADP
- inhibiting power towards platelet aggregation induced by collagen (in words) ([8]; in vitro, collagen printed 5 μml): no inhibiting power towards platelet aggregation induced by collagen which was worthy of note
- direct effect on the 2nd aggregation wave (in words) [8, 18]: negligible direct effect on the 2nd aggregation wave
- effect on aggregation induced by collagen, overall (in words) [8, 18]: practically no effect on aggregation induced by collagen
- inhibition in vivo at 23 mg/kg [9]: 50%
- effect on primary platelet aggregation due to ADP (in words) ([10]; 5×10^-4 M, ADP 1 μM, in vitro, FIG. 1): strongly reduces primary platelet aggregation due to ADP
- effect on 2nd aggregation wave (in words) ([10]; 5×10^-4 M, ADP 1 μM, in vitro, as a consequence of reduced primary aggregation): inhibits the 2nd aggregation wave
- effect on the 1st aggregation wave (in words) [10, 18]: inhibits the 1st aggregation wave
- inhibition of platelet aggregation induced by ADP, overall (in words) [10, 18]: strongly inhibits platelet aggregation induced by ADP
- increase of the duration of the sleep induced by pentobarbital [11]: 87%
- protection calculated on the total number of cells present in the exudate [12]: 48.8%
- protection calculated on the volume of the exudate [12]: 42.4%
- inhibition of platelet aggregation induced by collagen (in words) [13]: not effective in inhibiting platelet aggregation induced by collagen
- latency time of platelet aggregation induced by collagen (in words) [13]: lengthens the latency time
- selectivity ratio ([14]; edema test in the rat, read-out: therapeutical index (TI)): > 54
- LD50 ([14]; rat, route printed "/oa"): 200 mg/kg
- inhibition in vivo at 37 mg/kg ([15]; 37 mg/kg orally, read-out: Percent protection calculated on edema development): 50%
- ED50 ([15]; administered orally, read-out: ED50 (edema test)): 37 mg/kg
- temperature reduction ([16]; 80 mg/kg, intramuscular): 2.35%
- temperature reduction with respect to the controls ([16]; 300 mg/kg, oral, one hour after administration): 4.59%
- temperature after lowering (from 38.8° C.) ([16]; 300 mg/kg, oral, one hour after administration, lowering from 38.8° C.): 37.4 °C
- secondary effect on the gastro-intestinal system / gastric lesions [17]: no secondary effect on the gastro-intestinal system
